# According to patent US5965582A, “N-benzylindole and benzopyrazole derivatives with anti-asthmatic, anti-allergic, anti-inflammatory and immunemodulating effect” (ASTA Medica Aktiengesellschaft, priority 1994, dated 1999):
# Counter-ions that a name gives are not always drawn.
# What was measured:
# [1] = test system: allergically-induced histamine release from mast cells of the peritoneal and pleura cavities; experiment: Inhibition of allergically-induced histamine release in-vitro (CHIR); type: cell-based, Sprague-Dawley rats; details: for IC50: allergically-induced histamine release, rat mast cells, in vitro; for CHIR % inhibition: with 10 [μmol/l] (footnote: concentration unit 10,000 nmol/l)
# Procedure: Inhibition of allergically-induced histamine release in-vitro (CHIR)
# Meth. […] Sprague-Dawley rats were sensitised against egg albumin (EA) by subcutaneous injection of 30 mg EA with killed Bordetella pertussis bacteria as adjuvant. Four weeks later, the mast cells of the peritoneal and pleura cavities were isolated from these animals. The cells were washed, resuspended in tris gel CM (the composition of tris gel CM buffer is as follows:
# the rest is water, the pH value of the solution is 7.6) buffer and pre-incubated with the test substances for 15 minutes at 37° C. The cells were then stimulated at 37° C. by adding the antigen EA to release histamine.
# [2] = test system: IL-4 release from murine T-helper cells (D10.G4); experiment: Inhibition of anti-CD3-induced release of interleucin (IL)-4 in vitro (CIL4TC); type: cell-based; details: anti-CD3-induced IL-4 release; for IC50: 16 hours; for CIL4TC % inhibition: with 10 000 nmol/l
# Procedure: (§1) Inhibition of anti-CD3-induced release of interleucin (IL)-4 (CIL4TC) and IL-5-release (CIL5TC) in vitro
# (§2) Murine T-helper cells (D10.G4) were used as IL-4/IL-5-producing cells. These cells were pre-incubated with the test substances for 30 minutes at 37° C. The cells were then stimulated at 37° C. to produce interleucins by adding a monoclonal antibody against the T-cell receptor domain CD3 (anti-CD3). After 16 hours, the cells were centrifuged off and the released interleucins were quantified in the cell supernatant with ELISAs for murine IL-4 and IL-5.
# [3] = test system: IL-5 release from murine T-helper cells (D10.G4); experiment: Inhibition of anti-CD3-induced IL-5-release in vitro (CIL5TC); type: cell-based; details: 16 hours
# Procedure: as §1, §2
# [4] = test system: eosinophilia in the lavage; experiment: Late phase eosinophilia model in sensitised guinea pigs (bronchoalveolar lavage); type: in vivo, guinea pigs (Pirbright White)
# Procedure: The in vitro investigations with D-22557 and D-22558 were continued in vivo (late phase eosinophilia model) in sensitised guinea pigs
# Male guinea pigs (Pirbright White, 200-250 g. Charles River Wiga, Sulfeld) were actively sensitised using a s.c. injection cf ovalbumin (10μg+100 mg aluminium hydroxide) and boosted 2 weeks later. One week after the booster injection the animals were exposed for 30 seconds to an aerosol made from 0.5% ovalbumin solution. 24 hours later brochoalveolar lavage (BAL) was carried out with 2×5 ml physiol. salt solution in animals sacrificed using an overdose of pentobarbital sodium and desanguinated. The lavage fluid was pooled, centrifuged for 10 minutes at 400×g and the cell pellet resuspended in 1 ml physiological salt solution. The eosinophiles were counted in a Neubauer chamber after staining by using a Becton Dickinson eosinophile test kit. Percentage Inhibition of the eosinophilia in the lavage was calculated in percent by comparing the eosinophile count of the groups treated with substance with the eosinolphile count of normal (unchallenged) and challenged control groups not treated with the substance. Each group numbered 10 animals. Test substances were either given prophylactically 2 hours before allergen challenge (-2 h) or therapeutically 4 hours after challenge (+4 h). When the therapeutic application was investigated, the animals (all groups) received azelastin (10 μg/kg po) 2 hours before allergen challenge to avoid deaths arising due to the onset of early phase bronchoconstriction.
# [5] = 5 mg/kg ip, -2 h (before allergen challenge)
Structure (SMILES),IC50 ([1]; Mast cell),IC50 ([2]; Mus musculus),IC50 ([3]; Mus musculus),CIL4TC % inhibition [2],further results
"CCOC(=O)Nc1ccc(OC)nc1NCCc1cn(Cc2ccccc2)c2ccccc12 [D-22992, N-(3-ethoxycarbonylamino-6-methoxy-(2-pyridyl))-2-(1-benzylindole-3-yl)ethylamine]",0.68 µM,9.73 µM,6.24 µM,,
"O=C(Cc1cn(Cc2ccc(F)cc2)c2ccccc12)Nc1ccncc1 [D-22558, N-(4-pyridyl)-[1-(4-fluorobenzyl)indole-3-yl]acetamide]",0.016 µM,7.97 µM,1.52 µM,,"% Inhibition of the eosinophilia in the lavage [4, 5]: 41%; % Inhibition of the eosinophilia in the lavage ([4]; 10 mg/kg ip, +4 h (after challenge), animals received azelastin 10 μg/kg po 2 hours before challenge): 59%; % Inhibition of the eosinophilia in the lavage ([4]; 10 mg/kg po, -2 h (before allergen challenge)): 23%; % Inhibition of the eosinophilia in the lavage ([4]; 30 mg/kg po, -2 h (before allergen challenge)): 35%"
"CCOC(=O)Nc1ccc(N2CCc3c([nH]c4ccccc34)C2)nc1N [D-22559, N-(6-amino-5-ethoxycarbonylamino-(-2-pyridyl))-1,2,3,4-tetrahydro-β-carboline]",3.4 µM,,6.6 µM,51%,
"c1ccc(Cn2cc(CCNc3ccncc3)c3ccccc32)cc1 [D-22685, N-(4-pyridyl-yl)-2-(1-benzylindole-3-yl)ethylamine maleate]",,8.58 µM,6.89 µM,,CHIR % inhibition [1]: 33%
"Fc1ccc(Cn2cc(CCNc3cccnc3)c3ccccc32)cc1.O=C(O)/C=C\C(=O)O [D-22557, N-(pyridine-3-yl)-2-[1-(4-fluorobenzyl)indole-3-yl]ethylamine maleate]",,,,,"% Inhibition of the eosinophilia in the lavage ([4]; 0.5 mg/kg ip, -2 h (before allergen challenge)): 59%; % Inhibition of the eosinophilia in the lavage ([4]; 1 mg/kg ip, -2 h (before allergen challenge)): 42%; % Inhibition of the eosinophilia in the lavage [4, 5]: 50%"
"Cn1cc(CCCNc2ccncc2)c2ccccc21 [D-22697, N-(4-pyridyl-yl)-3-(1-methylindole-3-yl)propylamine]",,7.29 µM,2.88 µM,,
"Fc1ccc(Cn2cc(CCNc3ccncc3)c3ccccc32)cc1 [D-22561, N-(4-pyridyl-yl)-2-[1-(4-fluorobenzyl)indole-3-yl]ethylamine maleate]",,5.68 µM,3.21 µM,,CHIR % inhibition [1]: 15%
"Fc1ccc(Cn2cc(CCCNc3cccnc3)c3ccccc32)cc1 [D-22686, N-(3-pyridyl-yl)-3-3[1-(4-fluorobenzyl)indole-3-yl]propylamine]",0.2 µM,,7.31 µM,41%,
"Fc1ccc(Cn2cc(CCCNc3ccncc3)c3ccccc32)cc1 [D-22698, N-(4-pyridyl-yl)-3-[1-(4-fluorobenzyl)indole-3-yl]propylamine]",,,7.77 µM,38%,
CCOC(=O)Nc1ccc(OC)nc1NCCCc1cn(Cc2ccc(F)cc2)c2ccccc12 [D-22993],,,,,IC50 [1]: 0.54 µM; IC50 [2]: 8.97 µM; IC50 [3]: 6.94 µM
"CCn1cc(CC(=O)Nc2ccncc2)c2ccccc21 [D-22693, N-(4-pyridyl-yl)-2-(1-ethylindole-3-yl)acetamide]",0.4 µM,,2.7 µM,48%,
